The source of these data is US6448405B1, “Steroid receptor modulator compounds and methods” (Ligand Pharmaceuticals Incorporated, priority 1994, dated 2002).

Where two headings read alike, the source gives them in different places. Where only a bound is given, the exact number is not on record here.

By Ki is commonly meant a dissociation constant, usually derived from enzyme kinetics or from competition with a known ligand.

Test [1] deals with T1, human androgen receptor (AR) (Homo sapiens, UniProt P10275).
T1 construct: expressed in transfected cells; host or cells: CV-1 cells, transient transfection
T1 sequence (P10275 1-920): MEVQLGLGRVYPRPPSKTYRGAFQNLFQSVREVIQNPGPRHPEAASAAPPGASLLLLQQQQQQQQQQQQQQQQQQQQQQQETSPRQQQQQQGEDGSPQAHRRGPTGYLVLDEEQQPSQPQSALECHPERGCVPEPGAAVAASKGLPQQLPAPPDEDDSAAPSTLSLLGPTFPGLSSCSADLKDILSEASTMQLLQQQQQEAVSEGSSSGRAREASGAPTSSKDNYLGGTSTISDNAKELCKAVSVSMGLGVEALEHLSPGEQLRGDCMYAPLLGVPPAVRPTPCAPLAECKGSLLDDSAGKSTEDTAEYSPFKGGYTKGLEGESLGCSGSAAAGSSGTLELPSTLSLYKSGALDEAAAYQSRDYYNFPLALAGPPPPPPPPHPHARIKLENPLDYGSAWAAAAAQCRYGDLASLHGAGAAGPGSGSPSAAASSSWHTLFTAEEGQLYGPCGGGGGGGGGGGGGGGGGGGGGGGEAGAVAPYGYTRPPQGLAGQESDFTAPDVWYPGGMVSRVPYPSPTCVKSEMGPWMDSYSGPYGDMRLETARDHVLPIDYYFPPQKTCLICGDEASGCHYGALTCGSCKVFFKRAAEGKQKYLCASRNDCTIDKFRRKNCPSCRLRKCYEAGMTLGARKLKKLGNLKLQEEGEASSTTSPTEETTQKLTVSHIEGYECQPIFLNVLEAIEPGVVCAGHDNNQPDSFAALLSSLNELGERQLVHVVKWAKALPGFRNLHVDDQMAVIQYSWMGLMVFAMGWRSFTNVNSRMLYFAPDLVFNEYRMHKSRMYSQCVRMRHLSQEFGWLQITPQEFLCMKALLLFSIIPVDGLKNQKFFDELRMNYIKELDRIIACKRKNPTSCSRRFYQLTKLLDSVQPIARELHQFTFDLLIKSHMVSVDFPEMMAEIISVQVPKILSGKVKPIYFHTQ
In words: Co-transfection assay, AR agonist and antagonist activity, CV-1 cells (pRShAR). Type of test: cell-based. The settings on record: for AR Agonist CV-1 Cells Efficacy (%): agonist mode, relative to DHT; for AR Antagonist CV-1 Cells Efficacy (%): % maximal inhibition.

The target of a further test is T2, human PR-B (Homo sapiens, UniProt P06401).
T2 construct: expressed in transfected cells; host or cells: CV-1 cells (African green monkey kidney fibroblasts), transient transfection
T2 sequence (P06401 1-933): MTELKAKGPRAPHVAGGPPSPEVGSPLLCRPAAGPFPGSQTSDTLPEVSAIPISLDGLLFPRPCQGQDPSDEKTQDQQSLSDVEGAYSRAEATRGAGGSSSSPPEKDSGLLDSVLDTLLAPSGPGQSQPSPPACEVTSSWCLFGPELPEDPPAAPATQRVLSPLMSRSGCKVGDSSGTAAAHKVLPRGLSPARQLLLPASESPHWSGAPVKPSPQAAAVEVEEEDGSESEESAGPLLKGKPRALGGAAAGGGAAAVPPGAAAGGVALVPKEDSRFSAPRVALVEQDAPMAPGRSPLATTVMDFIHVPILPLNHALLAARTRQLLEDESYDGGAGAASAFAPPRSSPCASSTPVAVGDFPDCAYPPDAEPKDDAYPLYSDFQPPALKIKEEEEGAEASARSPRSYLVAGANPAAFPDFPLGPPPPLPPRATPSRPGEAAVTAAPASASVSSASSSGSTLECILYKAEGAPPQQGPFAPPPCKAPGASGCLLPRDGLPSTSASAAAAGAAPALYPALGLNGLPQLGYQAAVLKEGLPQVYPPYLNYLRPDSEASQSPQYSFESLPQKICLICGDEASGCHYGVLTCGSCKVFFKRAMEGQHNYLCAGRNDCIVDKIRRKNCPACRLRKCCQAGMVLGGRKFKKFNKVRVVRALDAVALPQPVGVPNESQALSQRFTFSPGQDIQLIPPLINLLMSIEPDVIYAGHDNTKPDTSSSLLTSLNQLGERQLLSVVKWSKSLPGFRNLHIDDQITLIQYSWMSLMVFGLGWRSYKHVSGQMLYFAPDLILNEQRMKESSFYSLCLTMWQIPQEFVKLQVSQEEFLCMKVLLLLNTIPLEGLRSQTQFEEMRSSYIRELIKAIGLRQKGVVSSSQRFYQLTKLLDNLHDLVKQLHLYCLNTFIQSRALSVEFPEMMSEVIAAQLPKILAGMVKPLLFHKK
In words: Co-transfection assay, PR agonist and antagonist activity, CV-1 cells.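 On all read-outs here: luciferase reporter driven by a hormone response element, co-transfected with human PR-B into CV-1 monkey kidney cells, agonists raise and antagonists lower the reporter signal.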 It counts as cell-based. The following applies: for EC50: read-out: PR Agonist CV-1 Cells Potency; for IC50: read-out: PR Antagonist CV-1 Cells Potency.

For test [2], the target named is T3, human progesterone receptor A form (PR-A) (Homo sapiens, UniProt P06401).
T3 sequence (P06401 1-769 isoform P06401-2): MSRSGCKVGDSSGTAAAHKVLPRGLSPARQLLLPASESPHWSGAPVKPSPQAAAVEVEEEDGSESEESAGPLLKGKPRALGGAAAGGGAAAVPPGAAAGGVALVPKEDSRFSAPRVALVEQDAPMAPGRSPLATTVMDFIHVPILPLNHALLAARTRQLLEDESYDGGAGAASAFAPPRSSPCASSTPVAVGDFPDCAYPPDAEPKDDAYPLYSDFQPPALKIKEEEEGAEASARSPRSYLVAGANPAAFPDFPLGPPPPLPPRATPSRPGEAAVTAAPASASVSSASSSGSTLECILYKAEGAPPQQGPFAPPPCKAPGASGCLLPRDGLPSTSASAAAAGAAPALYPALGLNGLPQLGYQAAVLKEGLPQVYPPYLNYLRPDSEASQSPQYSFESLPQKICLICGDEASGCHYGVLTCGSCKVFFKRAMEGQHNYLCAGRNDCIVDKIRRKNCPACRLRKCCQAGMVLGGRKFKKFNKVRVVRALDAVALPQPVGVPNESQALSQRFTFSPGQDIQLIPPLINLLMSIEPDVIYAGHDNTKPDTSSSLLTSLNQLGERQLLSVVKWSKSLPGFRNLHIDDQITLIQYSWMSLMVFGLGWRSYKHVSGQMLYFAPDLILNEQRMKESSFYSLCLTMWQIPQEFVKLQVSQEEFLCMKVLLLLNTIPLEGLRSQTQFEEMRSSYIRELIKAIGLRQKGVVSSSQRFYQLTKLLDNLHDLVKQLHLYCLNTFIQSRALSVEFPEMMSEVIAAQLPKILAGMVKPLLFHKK
Nature of the test: PR binding assay, baculovirus extract, [3H] progesterone. The settings on record: read-out: PR Binding Ki.

[3] abbreviates: agonist mode, percent maximal response relative to reference agonist progesterone.
The mark [4] stands for this setting: antagonist mode, progesterone at its EC50, % maximal inhibition.

With “8-(4-Chlorobenzoyl)-5-trifluoromethyl-7-pyridono[5,6-e]indoline [Compound 420]”, the “AR Agonist CV-1 Cells Efficacy (%)” value in test [1] (Table 2) is listed as 40%. Further, the “AR Antagonist CV-1 Cells Efficacy (%)” value in test [1] (Table 2, antagonist mode) turned out to be 80%.
Turning to “8-Bromo-12-dihydro-2,2,4-trimethylindeno[1,2-]quinoline [Compound 117]”, on human PR-B (setting [3]), the “PR Agonist CV-1 Cells Efficacy (%)” value was “na (na = not active (i.e. efficacy or <20 and potency of >10,000))”. At human PR-B (setting [4]), the “PR Antagonist CV-1 Cells Efficacy (%)” value is reported as 68%.
Take `CC1=CC(C)(C)Nc2ccc3c(c21)C(C)Oc1ccc(Cl)cc1-3` (racemic) [Compound 332, (R/S)-9-Chloro-1,2-dihydro-2,2,4,5-tetramethyl-5H-chromeno[3,4-f]quinoline]: at human PR-B, the “PR Agonist CV-1 Cells Efficacy (%)” value stood at 138%; the “PR Antagonist CV-1 Cells Efficacy (%)” value is “na (na = not active (i.e. efficacy or <20 and potency of >10,000))”.
Take `CC1(C)Nc2ccc3c(c2C(=O)C1(C)C)C(c1ccc(Cl)cc1)Oc1ccccc1-3` (racemic) [Compound 379, (R/S)-5-(4-Chlorophenyl)-1,2,3,4-tetrahydro-2,2,3,3-tetramethyl-5H-chromeno[3,4-f]-4-quinolinone]: at human PR-B, the “PR Agonist CV-1 Cells Efficacy (%)” value was “na (na = not active (i.e. efficacy or <20 and potency of >10,000))”; the “PR Antagonist CV-1 Cells Efficacy (%)” value amounted to 87%; the IC50 came out at 350 nM. Moreover, the EC50 on human PR-B (agonist mode) is over 10000 nM. In test [2], the Ki was 25 nM.
Consider `CCCCC1Oc2ccccc2-c2ccc3c(c21)C(C)C(O)(CCCC)C(C)(C)N3` (racemic) [Compound 385, (R/S)-3,5-Dibutyl-1,2,3,4-tetrahydro-3-hydroxy-2,2,4-trimethyl-5H-chromeno[3,4-f]quinoline], for which, at human PR-B, the “PR Agonist CV-1 Cells Efficacy (%)” value is 27%, the “PR Antagonist CV-1 Cells Efficacy (%)” value is given as 45% and the IC50 stood at 2300 nM. Also, the EC50 on human PR-B (agonist mode) worked out at 82 nM. Besides, in test [2], the Ki came out at 31 nM.
On to `CC1C(=O)C(C)(C)Nc2ccc3c(c21)/C(=C/c1cccc(F)c1)Oc1ccccc1-3` (racemic) [Compound 389, (Z)-(R/S)-5-(3-Fluorobenzylidene)-1,2,3,4-tetrahydro-2,2,4-trimethyl-5H-chromeno[3,4-f]-3-quinolinone], for which, on human PR-B, the “PR Agonist CV-1 Cells Efficacy (%)” value came to 133%; the “PR Antagonist CV-1 Cells Efficacy (%)” value was “na (na = not active (i.e. efficacy or <20 and potency of >10,000))”; the IC50 was over 10000 nM. In addition, at human PR-B (agonist mode), the EC50 came to 17 nM. Further, in test [2], the Ki worked out at 4 nM.
As to `CCCO[C@@H]1[C@@H](C)c2c(ccc3c2[C@H](c2ccc(Cl)cc2)Oc2ccccc2-3)NC1(C)C` (racemic) [Compound 400, (R/S-3l,4u,5u)-5-(4-Chlorophenyl)-1,2,3,4-tetrahydro-3-propyloxy-2,2,4-trimethyl-5H-chromeno[3,4-f]quinoline], at human PR-B, the “PR Agonist CV-1 Cells Efficacy (%)” value is “na (na = not active (i.e. efficacy or <20 and potency of >10,000))”; the “PR Antagonist CV-1 Cells Efficacy (%)” value worked out at 68%; the IC50 is 370 nM. Further, on human PR-B (agonist mode), the EC50 was over 10000 nM. Moreover, in test [2], the inhibition constant (Ki) worked out at 14 nM.
For `C[C@H]1C(=O)C(C)(C)Nc2ccc3c(c21)O[C@H](c1ccccc1)c1ccccc1-3` (relative stereo) [Compound 391, (R/S-4l,6l)-1,2,3,4-Tetrahydro-2,2,4-trimethyl-6-phenyl-5H-isochromeno[3,4-f]-3-quinolinone], the “PR Agonist CV-1 Cells Efficacy (%)” value at human PR-B (setting [3]) was “na (na = not active (i.e. efficacy or <20 and potency of >10,000))”. Moreover, the “PR Antagonist CV-1 Cells Efficacy (%)” value at human PR-B (setting [4]) was determined as 65%.
For `CC1C(=O)C(C)(C)Nc2ccc3c(c21)C(c1ccc(Cl)cc1)Oc1ccccc1-3` (single isomer, unassigned; (+)) [Compound 381, (+)-(R*-4l,5l)-5-(4-Chlorophenyl)-1,2,3,4-tetrahydro-2,2,4-trimethyl-5H-chromeno[3,4-f]-3-quinolinone], at human PR-B, the “PR Antagonist CV-1 Cells Efficacy (%)” value was “na (na = not active (i.e. efficacy or <20 and potency of >10,000))”.
For `CC1=CC(C)(C)Nc2cc3[nH]c(=O)cc(C(F)(F)F)c3cc21` [Compound 247, 1,2-Dihydro-2,2,4-trimethyl-6-trifluoromethyl-8-pyridono[5,6-g]quinoline], the “AR Agonist CV-1 Cells Efficacy (%)” value in test [1] (Table 2) amounted to 23%. For the same compound, in test [1] (Table 2, antagonist mode), the “AR Antagonist CV-1 Cells Efficacy (%)” value amounted to 69%.
Consider `CC1=CC(C)(C)Nc2ccc(-c3cc(F)cc(C#N)c3)cc21` [Compound 271, 6-(3-Cyano-5-fluorophenyl)-1,2-dihydro-2,2,4-trimethylquinoline], for which, at human PR-B, the “PR Agonist CV-1 Cells Efficacy (%)” value is “na (na = not active (i.e. efficacy or <20 and potency of >10,000))”; the “PR Antagonist CV-1 Cells Efficacy (%)” value amounted to 78%.
Take `O=c1cc(C(F)(F)F)c2cc3c(cc2[nH]1)NCC3` [Compound 419, 5-Trifluoromethyl-7-pyridono[5,6-e]indoline]: in test [1] (Table 2), the “AR Agonist CV-1 Cells Efficacy (%)” value is given as 29%. The “AR Antagonist CV-1 Cells Efficacy (%)” value in test [1] (Table 2, antagonist mode) was determined as 74%.
As for `CC1(C)CNc2cc3[nH]c(=O)cc(C(F)(F)F)c3cc2C1` [Compound 437, 1,2,3,4-Tetrahydro-3,3-dimethyl-6-trifluoromethyl-8-pyridono[5,6-g]quinoline], the “AR Agonist CV-1 Cells Efficacy (%)” value was “na (na = not active (i.e. efficacy of <20 and potency of >10,000))” in test [1] (Table 2); “na (na = not active (i.e. efficacy of <20 and potency of >10,000))” in test [1]. Further, the “AR Antagonist CV-1 Cells Efficacy (%)” value in test [1] (Table 2, antagonist mode) is 72%. Also, the “activity as AR antagonists compared with 2-OH-flutamide” value in test [1] (antagonist mode) is recorded as “equivual or better activity”.
“(R/S)-4-Ethyl-1,2,3,4-tetrahydro-1-methyl-8-pyranono[5,6-g]quinoline [Compound 416]”: the “AR Agonist CV-1 Cells Efficacy (%)” value in test [1] (Table 2) and in test [1] was 88% each time. In addition, the “AR Antagonist CV-1 Cells Efficacy (%)” value was determined as 24% in test [1] (Table 2, antagonist mode) and 24% in test [1] (antagonist mode, DHT at its EC50).
